In ChEMBL document CHEMBL1201862, “PubChem BioAssay data set” (2004):
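Protocol summary: plate cells (96-well), add compound at 5 concentrations, incubate 48 h, interpolate endpoints linearly. GI50: concentration for 50% inhibition of growth.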 Activity calls are given as the source filed them. Rule as the data show it: active = GI50 up to about 1.1 µM and inactive = higher.

How the values were obtained:
Assay in all cases: NCI-60 cell line screen, 48 h
[1] = tested on: SNB-19
[2] = tested on: UACC-257
[3] = tested on: 786-0
[4] = tested on: A498
[5] = tested on: K562
[6] = tested on: SN12C
[7] = tested on: LOX IMVI
[8] = tested on: KM12
[9] = tested on: HCT-116
[10] = tested on: BT-549
[11] = tested on: SW-620
[12] = tested on: SF-539
[13] = tested on: SNB-75
[14] = tested on: HOP-62
[15] = tested on: M14
[16] = tested on: DU-145
[17] = tested on: CAKI-1
[18] = tested on: OVCAR-5
[19] = tested on: PC-3

Compound: CC(C)=CCC[C@](C)(O[C@@H]1O[C@H](CO)[C@@H](O)[C@H](O)[C@H]1O)[C@H]1CC[C@]2(C)[C@@H]1[C@H](O)C[C@@H]1[C@@]3(C)CC[C@@H](O)C(C)(C)[C@@H]3[C@@H](O[C@@H]3O[C@H](CO)[C@@H](O)[C@H](O)[C@H]3O)C[C@]12C.C[C@@H]1O[C@@H](O[C@H]2[C@H](O[C@H]3C[C@]4(C)[C@H](C[C@H](O)[C@@H]5[C@@H]([C@@]6(C)CC[C@H](C(C)(C)O)O6)CC[C@]54C)[C@@]4(C)CC[C@H](O)C(C)(C)[C@H]34)O[C@H](CO)[C@@H](O)[C@@H]2O)[C@H](O)[C@H](O)[C@H]1O
- GI50 [1]: > 100 µM (inactive)
- GI50 [2]: > 100 µM (inactive)
- GI50 [3]: > 100 µM (inactive)
- GI50 [4]: > 100 µM (inactive)
- GI50 [5]: > 100 µM (inactive)
- GI50 [6]: > 100 µM (inactive)
- GI50 [7]: > 100 µM (inactive)
- GI50 [8]: > 100 µM (inactive)
- GI50 [9]: > 100 µM (inactive)
- GI50 [10]: > 100 µM (inactive)
- GI50 [11]: > 100 µM (inactive)
- GI50 [12]: > 100 µM (inactive)
- GI50 [13]: > 100 µM (inactive)
- GI50 [14]: > 100 µM (inactive)
- GI50 [15]: > 100 µM (inactive)
- GI50 [16]: > 100 µM (inactive)
- GI50 [17]: > 100 µM (inactive)
- GI50 [18]: > 100 µM (inactive)
- GI50 [19]: > 100 µM (inactive)

Compound: COc1ccc(-c2cc(-c3cc(C)cc(Br)c3O)no2)cc1
- GI50 [1]: 10.5 µM (inactive)
- GI50 [2]: 11 µM (inactive)
- GI50 [3]: 12 µM (inactive)
- GI50 [4]: 3.03 µM (inactive)
- GI50 [5]: 14.1 µM (inactive)
- GI50 [6]: 7.59 µM (inactive)
- GI50 [7]: 6.03 µM (inactive)
- GI50 [8]: 22.2 µM (inactive)
- GI50 [9]: 10.3 µM (inactive)
- GI50 [10]: 14.9 µM (inactive)
- GI50 [11]: 16.3 µM (inactive)
- GI50 [12]: 5.74 µM (inactive)
- GI50 [13]: 2.86 µM (inactive)
- GI50 [14]: 8.67 µM (inactive)
- GI50 [15]: 25.6 µM (inactive)
- GI50 [16]: 16.6 µM (inactive)
- GI50 [17]: 6.98 µM (inactive)
- GI50 [18]: 30.4 µM (inactive)
- GI50 [19]: 4.44 µM (inactive)

Compound: CC(=O)O[C@H]1CC[C@H]2[C@@H]3CCC4=CC(=O)C=C[C@]4(O)[C@H]3CC[C@]12C
- GI50 [1]: 71.6 µM (inactive)
- GI50 [2]: 18.4 µM (inactive)
- GI50 [3]: 50.6 µM (inactive)
- GI50 [4]: 42.8 µM (inactive)
- GI50 [5]: 7.66 µM (inactive)
- GI50 [6]: > 71.9 µM (inactive)
- GI50 [7]: 12.9 µM (inactive)
- GI50 [8]: 14.9 µM (inactive)
- GI50 [9]: 21.9 µM (inactive)
- GI50 [10]: 43 µM (inactive)
- GI50 [11]: 25.5 µM (inactive)
- GI50 [12]: 31.3 µM (inactive)
- GI50 [13]: 14.7 µM (inactive)
- GI50 [14]: > 100 µM (inactive)
- GI50 [15]: 32.1 µM (inactive)
- GI50 [16]: > 50.4 µM (inactive)
- GI50 [17]: > 55.1 µM (inactive)
- GI50 [18]: > 100 µM (inactive)
- GI50 [19]: 30.1 µM (inactive)

Compound: COc1c(CC=C(C)C)c(O)c(C(CC(C)C)c2c(O)c3c(c(C(C)=O)c2O)OC(C(C)(C)O)C3)c(O)c1C(C)=O (stereo not drawn)
- GI50 [1]: 5.09 µM (inactive)
- GI50 [2]: 4.18 µM (inactive)
- GI50 [3]: 5.65 µM (inactive)
- GI50 [4]: 3.84 µM (inactive)
- GI50 [5]: 2.6 µM (inactive)
- GI50 [6]: 3.93 µM (inactive)
- GI50 [7]: 4.78 µM (inactive)
- GI50 [8]: 3.7 µM (inactive)
- GI50 [9]: 3.64 µM (inactive)
- GI50 [10]: 3 µM (inactive)
- GI50 [11]: 4.62 µM (inactive)
- GI50 [12]: 4.24 µM (inactive)
- GI50 [13]: 4.92 µM (inactive)
- GI50 [14]: 5.2 µM (inactive)
- GI50 [15]: 6.05 µM (inactive)
- GI50 [16]: 4.54 µM (inactive)
- GI50 [17]: 3.93 µM (inactive)
- GI50 [18]: 6.93 µM (inactive)
- GI50 [19]: 3.15 µM (inactive)

Compound: O=[N+]([O-])c1cccc2nc3ccccc3c(NCCc3cccc[n+]3[O-])c12
- GI50 [1]: 0.128 µM (active)
- GI50 [2]: < 0.0231 µM (active)
- GI50 [3]: < 0.0168 µM (active)
- GI50 [4]: 0.0475 µM (active)
- GI50 [5]: 0.0168 µM (active)
- GI50 [6]: < 0.0199 µM (active)
- GI50 [7]: 0.0299 µM (active)
- GI50 [8]: < 0.0328 µM (active)
- GI50 [9]: < 0.01 µM (active)
- GI50 [10]: < 0.0165 µM (active)
- GI50 [11]: < 0.01 µM (active)
- GI50 [12]: 0.0407 µM (active)
- GI50 [13]: < 0.0438 µM (active)
- GI50 [14]: < 0.0177 µM (active)
- GI50 [15]: < 0.0105 µM (active)
- GI50 [16]: < 0.01 µM (active)
- GI50 [17]: < 0.0402 µM (active)
- GI50 [18]: < 0.0194 µM (active)
- GI50 [19]: < 0.0391 µM (active)

Compound: CCOC(=O)N1CCN(c2ccc3c(C)cc(C)nc3n2)CC1
- GI50 [1]: > 100 µM (inactive)
- GI50 [2]: > 100 µM (inactive)
- GI50 [3]: > 100 µM (inactive)
- GI50 [4]: > 100 µM (inactive)
- GI50 [5]: > 100 µM (inactive)
- GI50 [6]: > 100 µM (inactive)
- GI50 [7]: > 100 µM (inactive)
- GI50 [8]: > 100 µM (inactive)
- GI50 [9]: > 100 µM (inactive)
- GI50 [10]: > 100 µM (inactive)
- GI50 [11]: > 100 µM (inactive)
- GI50 [12]: > 100 µM (inactive)
- GI50 [13]: > 100 µM (inactive)
- GI50 [14]: > 100 µM (inactive)
- GI50 [15]: > 100 µM (inactive)
- GI50 [16]: > 100 µM (inactive)
- GI50 [17]: > 100 µM (inactive)
- GI50 [18]: > 100 µM (inactive)
- GI50 [19]: > 100 µM (inactive)

Compound: O=C(SC1=NCCN1)c1cccc2ccccc12
- GI50 [1]: > 100 µM (inactive)
- GI50 [2]: 28.9 µM (inactive)
- GI50 [3]: 67.5 µM (inactive)
- GI50 [4]: > 100 µM (inactive)
- GI50 [5]: 25.4 µM (inactive)
- GI50 [6]: 64.6 µM (inactive)
- GI50 [7]: > 100 µM (inactive)
- GI50 [8]: 37 µM (inactive)
- GI50 [9]: 41 µM (inactive)
- GI50 [10]: 64.7 µM (inactive)
- GI50 [11]: 33.8 µM (inactive)
- GI50 [12]: > 100 µM (inactive)
- GI50 [13]: 22.8 µM (inactive)
- GI50 [14]: 55 µM (inactive)
- GI50 [15]: 67.6 µM (inactive)
- GI50 [16]: 67.5 µM (inactive)
- GI50 [17]: > 100 µM (inactive)
- GI50 [18]: > 100 µM (inactive)
- GI50 [19]: 42 µM (inactive)
